Our source for the TGI values is PubChem BioAssay (NCI).

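Protocol summary: plate cells (96-well), add compound at 5 concentrations, incubate 48 h, interpolate endpoints linearly. TGI denotes the concentration required for complete inhibition of growth.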

Holding throughout (test): inhibition of tumour cell growth, NCI panel, 48 h
For test [1], the system named is CCRF-CEM leukemia.
Test [2] relates to EKVX NSCLC.
Test [3] relates to HL-60(TB) leukemia.
Test [4] has as its system HOP-92 NSCLC.
Test [5] relates to IGROV1 ovarian.
In test [6] the test system is K-562 leukemia.
The test system of test [7] is KM12 colon.
For test [8], the system named is MALME-3M melanoma.
For test [9], the system named is MCF7 breast.
Test [10] concerns NCI-H460 lung.
The subject of test [11] is NCI-H522 lung.
Test [12] relates to NCI/ADR-RES ovarian.
In test [13] the test system is OVCAR-3 ovarian.
The test system of test [14] is OVCAR-4 ovarian.
Test [15] deals with OVCAR-8 ovarian.
Test [16] concerns RPMI-8226 leukemia.
For test [17], the system named is SF-268 CNS.
The test system of test [18] is SF-295 CNS.
For test [19], the system named is SW-620 colon.
Test [20] concerns T-47D breast.

On to `O=C(Nc1nncs1)NS(=O)(=O)n1c(=S)sc2ccccc21`, for which the TGI in [1] is 75.7 µM; in test [2], over 100 µM; in [3], over 100 µM; in test [4], over 100 µM; in [5] it was over 100 µM; in test [6] it was over 100 µM. The TGI in test [7], in [8], in [9], in [10], in test [11] and in test [12] was over 100 µM throughout. In addition, the TGI in [13], in test [14], in [15], in test [16], in test [17] and in test [18] was over 100 µM each time. Besides, the TGI in test [19] and in test [20] was over 100 µM in each case.

For `Nc1nc(Cl)c(N)c(NCC2(CO)CCCC2)n1`, the TGI in [1], in test [2], in [3], in test [4], in test [5] and in test [6] was over 100 µM each time. Moreover, the TGI in test [7], in test [8], in test [9], in test [10], in test [11] and in test [12] was over 100 µM each time. Further, the TGI in test [13], in test [14], in [15], in [16], in [17] and in test [18] was over 100 µM in each case. Moreover, the values for the TGI in test [19] and in test [20] were over 100 µM and 35.9 µM, respectively.

In the case of `CC(C(=O)OCc1ccccc1)(c1ccco1)N1C(=O)OC(c2ccccc2)C1c1ccccc1` (stereo not given), the TGI in test [1], in test [2], in test [3], in [4], in [5] and in [6] was over 100 µM each time. The TGI in test [7], in [8], in [9], in [10], in [11] and in test [12] was over 100 µM throughout. Moreover, the TGI in test [13], in [14], in test [15], in test [16], in test [17] and in [18] was over 100 µM in each case. Also, the TGI in test [19] and in [20] was over 100 µM throughout.

Take `C=C(C(=O)O)[C@@H]1C[C@@H](OC(C)=O)[C@]2(C)CC/C=C(\C)CCC[C@H](C)[C@H](O)[C@@H]1O2`: the TGI was 73.4 µM in test [1]; over 100 µM in test [2]; 57.4 µM in [3]; over 100 µM in [4]; over 100 µM in test [5]; over 100 µM in test [6]. For the same molecule, the TGI in [7] was over 100 µM; in test [8] it was over 100 µM; in [9], over 100 µM; in test [10] it was over 100 µM; in test [11], 48.4 µM; in [12], over 100 µM. Moreover, the TGI in [13], in [14], in test [15], in [16], in test [17] and in test [18] was over 100 µM each time. For the same molecule, the TGI in test [19] and in [20] was over 100 µM in each case.

As to `COC(=O)CC1C=CC(C)(OC)OO1` (stereo not given), the TGI is 97.9 µM in test [1]; over 100 µM in test [2]; over 100 µM in [3]; over 100 µM in [4]; over 100 µM in [5]; over 100 µM in test [6]. Also, the TGI in test [7] was over 100 µM; in test [8], over 100 µM; in test [9], over 100 µM; in [10], 24.4 µM; in [11], 55.5 µM; in test [12], over 100 µM. The TGI in test [13], in test [14], in test [15], in [16], in [17] and in test [18] was over 100 µM each time. Besides, the TGI in [19] and in [20] was over 100 µM in each case.

As for `CCOC(=O)CO/N=C1/C(c2c(O)[nH]c3ccccc23)=Nc2ccccc21`, the TGI in test [1] is over 100 µM; in test [2], over 100 µM; in test [3] it was over 100 µM; in test [4] it was 63.3 µM; in [5] it was 79.2 µM; in test [6], over 100 µM. Moreover, the TGI in test [7], in [8], in [9], in test [10], in test [11] and in test [12] was over 100 µM each time. The TGI in test [13] was 55 µM; in [14] it was 16.5 µM; in [15], over 100 µM; in [16] it was over 100 µM; in [17] it was over 100 µM; in test [18], over 100 µM. Besides, the TGI in test [19] is over 100 µM; in test [20], 45.8 µM.

Turning to `COc1ccc(CC2c3cc(OC)c(OC)cc3CC[N+]2(C)C)cc1OC` (stereo not given), the TGI in test [1], in test [2], in test [3], in [4], in test [5] and in test [6] was over 100 µM in each case. Moreover, the TGI in [7], in [8], in test [9], in [10], in test [11] and in test [12] was over 100 µM throughout. Besides, the TGI in test [13], in test [14], in test [15], in test [16], in test [17] and in test [18] was over 100 µM throughout. Also, the TGI in test [19] and in test [20] was over 100 µM throughout.
